Measured values published in ChEMBL document CHEMBL3352242, “Structure-based design of substituted piperidines as a new class of highly efficacious oral direct Renin inhibitors” (ACS Med Chem Lett, 2014).
Calls of active or inactive are those of the source. No cut-off for these calls is given here.

Experiments:
[1] = target: T1, Renin (Homo sapiens, UniProt P00797); assay: Inhibition of human recombinant renin using fluorescence-quenched RE(EDANS)IHPFHLVIHTK(Dabcyl)R substrate by fluorimetric assay
T1 sequence (P00797 whole entry): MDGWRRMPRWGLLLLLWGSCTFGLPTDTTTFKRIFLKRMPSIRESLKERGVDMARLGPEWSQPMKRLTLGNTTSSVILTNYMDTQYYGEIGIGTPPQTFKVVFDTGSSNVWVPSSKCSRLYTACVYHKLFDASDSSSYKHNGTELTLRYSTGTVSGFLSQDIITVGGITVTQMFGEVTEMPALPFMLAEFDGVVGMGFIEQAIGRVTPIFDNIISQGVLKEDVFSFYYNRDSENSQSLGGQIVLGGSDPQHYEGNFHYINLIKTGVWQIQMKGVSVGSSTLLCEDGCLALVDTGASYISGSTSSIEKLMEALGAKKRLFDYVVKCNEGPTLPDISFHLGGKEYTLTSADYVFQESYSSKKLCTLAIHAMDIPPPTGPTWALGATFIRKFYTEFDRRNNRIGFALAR

[2] = target: T1, Renin; assay: Inhibition of human recombinant renin in presence of human plasma using Ac- IHPFHL-VIHNK-(DY-505-X5)-COOH substrate by fluorimetric assay
[3] = Clearance in human liver microsomes; type: ADME; details: read-out: CLH
[4] = Clearance in rat liver microsomes; type: ADME; details: read-out: CLH
[5] = Oral bioavailability in Sprague-Dawley rat at 6 mg/kg; type: ADME, organism-based; details: in vivo
[6] = Lipophilicity, logD of the compound at pH 6.8; type: physicochemical; details: buffer
[7] = Clearance in Sprague-Dawley rat at 2 mg/kg, iv; type: ADME, organism-based; design: dose 2 mg/kg, route intravenous; details: in vivo
[8] = Volume of distribution at steady state in Sprague-Dawley rat at 2 mg/kg, iv; type: ADME, organism-based; design: dose 2 mg/kg, route intravenous; details: in vivo, read-out: Vdss
[9] = Half life in Sprague-Dawley rat at 2 mg/kg, iv; type: ADME, organism-based; design: dose 2 mg/kg, route intravenous; details: in vivo
[10] = tested on: Rattus norvegicus; assay: Dose normalized Cmax inSprague-Dawley rat at 6 mg/kg, po; type: ADME, organism-based, Sprague-Dawley; design: dose 6 mg/kg, route oral; details: in vivo
[11] = tested on: Rattus norvegicus; assay: Dose normalized AUC (infinity) in Sprague-Dawley rat at 6 mg/kg, po; type: ADME, organism-based; design: dose 6 mg/kg, route oral; details: in vivo
[12] = tested on: Rattus norvegicus; assay: Reduction in mean arterial pressure in human renin and human angiotensinogen double transgenic rat at 100 mg/kg, po after 42 hrs; type: functional, organism-based; design: dose 100 mg/kg; details: Artery
[13] = tested on: Rattus norvegicus; assay: Reduction in mean arterial pressure in human renin and human angiotensinogen double transgenic rat at 1 to 100 mg/kg, po; type: functional, organism-based; details: Artery
[14] = target: Voltage-gated inwardly rectifying potassium channel KCNH2 (Homo sapiens, UniProt Q12809); assay: Displacement of [3H]dofetilide from human ERG expressed in HEK293 cell membranes incubated for 90 mins by beta-counting method
Chain of Voltage-gated inwardly rectifying potassium channel KCNH2 (Q12809 whole entry): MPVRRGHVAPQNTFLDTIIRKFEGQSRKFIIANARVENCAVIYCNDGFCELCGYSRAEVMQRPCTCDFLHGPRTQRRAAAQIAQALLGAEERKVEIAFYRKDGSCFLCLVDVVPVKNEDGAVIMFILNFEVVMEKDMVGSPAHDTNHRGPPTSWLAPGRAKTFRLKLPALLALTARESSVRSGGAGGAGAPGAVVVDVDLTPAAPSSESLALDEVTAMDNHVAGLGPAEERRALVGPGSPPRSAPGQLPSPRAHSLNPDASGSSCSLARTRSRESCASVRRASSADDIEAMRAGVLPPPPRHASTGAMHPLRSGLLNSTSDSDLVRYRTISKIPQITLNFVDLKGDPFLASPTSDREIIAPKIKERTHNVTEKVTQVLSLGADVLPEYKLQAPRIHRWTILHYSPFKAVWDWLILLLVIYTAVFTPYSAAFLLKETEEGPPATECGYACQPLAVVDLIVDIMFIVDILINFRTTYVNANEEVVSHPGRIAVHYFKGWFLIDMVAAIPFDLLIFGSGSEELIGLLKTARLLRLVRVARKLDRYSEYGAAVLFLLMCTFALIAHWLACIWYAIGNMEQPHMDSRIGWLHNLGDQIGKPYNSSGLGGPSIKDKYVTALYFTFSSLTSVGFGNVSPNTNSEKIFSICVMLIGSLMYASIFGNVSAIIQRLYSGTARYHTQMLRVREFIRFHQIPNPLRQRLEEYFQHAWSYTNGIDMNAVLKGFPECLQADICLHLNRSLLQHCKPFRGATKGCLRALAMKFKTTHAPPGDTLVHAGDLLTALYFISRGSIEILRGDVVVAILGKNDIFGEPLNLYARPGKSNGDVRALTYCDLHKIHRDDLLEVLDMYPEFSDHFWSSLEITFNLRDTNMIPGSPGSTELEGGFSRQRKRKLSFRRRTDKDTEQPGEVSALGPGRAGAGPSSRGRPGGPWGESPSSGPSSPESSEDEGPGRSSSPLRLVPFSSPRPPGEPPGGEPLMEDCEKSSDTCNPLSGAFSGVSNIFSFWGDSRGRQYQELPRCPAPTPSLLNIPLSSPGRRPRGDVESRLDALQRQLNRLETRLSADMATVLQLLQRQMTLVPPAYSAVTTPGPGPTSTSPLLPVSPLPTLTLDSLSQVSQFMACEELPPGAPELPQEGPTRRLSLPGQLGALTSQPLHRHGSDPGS

SMILES	IC50 [1]	IC50 [2]	microsomal CLint [3]	microsomal CLint [4]	bioavailability [5]	other results
COCCCn1cc(CN(C(=O)[C@H]2CNC[C@@H](C(=O)N[C@H](CCO)c3ccccc3)C2)C2CC2)c2ccccc21	0.4 nM	1 nM	173 µL/min/mg	109 µL/min/mg	< 0.1%	–
CCOC[C@@H](CC(C)C)NC(=O)[C@@H]1CNC[C@H](C(=O)N(c2cc(OCCCOC)c(C(C)C)cc2F)C2CC2)C1	0.3 nM	2 nM	115 µL/min/mg	214 µL/min/mg	–	–
COCCCn1cc(CN(C(=O)[C@H]2CNC[C@@H](C(=O)Nc3c(C)cccc3OC)C2)C2CC2)c2ccccc21	0.4 nM	2 nM	679 µL/min/mg	533 µL/min/mg	–	–
CCOC[C@@H](CC(C)C)NC(=O)[C@@H]1CNC[C@H](C(=O)N(c2cc(OCC)c(CC)cn2)C2CC2)C1 [listing 1 of 2 here]	–	–	–	–	–	logD [6]: 2.1
CCOC[C@@H](CC(C)C)NC(=O)[C@@H]1CNC[C@H](C(=O)N(c2cc(OC)c(C(C)C)cn2)C2CC2)[C@@H]1O [listing 1 of 2 here]	–	2 nM	22 µL/min/mg	142 µL/min/mg	–	–
CCOC[C@@H](CC(C)C)NC(=O)[C@@H]1CNC[C@H](C(=O)N(c2cc(OC)c(C(C)C)cn2)C2CC2)C1.O=C(O)C(O)C(O)C(=O)O	–	–	–	–	39%	clearance [7]: 40 mL/min/kg; Vd [8]: 4.3 L/kg; half-life [9]: 7 h; Cmax/dose [10]: 68 nM/mg/kg; AUC/dose [11]: 324 nM·h/mg/kg
CCOC[C@@H](CC(C)C)NC(=O)[C@@H]1CNC[C@H](C(=O)N(c2ccc(C(C)C)cn2)C2CC2)[C@@H]1O [listing 1 of 2 here]	–	–	–	–	–	Activity [12]: Active; Activity [13]: Dose-dependent effect
Cc1ccc(S(=O)(=O)N[C@@H]2CNC[C@H](C(=O)N(Cc3cccc(Cl)c3Cl)C3CC3)C2)cc1 (racemic)	2600 nM	–	–	–	–	–
COCCCn1cc(CN(C(=O)[C@H]2CNC[C@@H](C(=O)N[C@@H](CO)CC(C)C)C2)C2CC2)c2ccccc21	3 nM	8 nM	157 µL/min/mg	111 µL/min/mg	0.4%	–
CCOC[C@@H](CC(C)C)NC(=O)[C@@H]1CNC[C@H](C(=O)N(c2cc(OCC)c(CC)cn2)C2CC2)[C@@H]1O [listing 1 of 2 here]	0.6 nM	2.5 nM	22 µL/min/mg	54 µL/min/mg	–	–
CCOC[C@@H](CC(C)C)NC(=O)[C@@H]1CNC[C@H](C(=O)N(c2cc(OCCCOC)c(C(C)C)cn2)C2CC2)C1.Cl	0.4 nM	1 nM	53 µL/min/mg	96 µL/min/mg	19%	clearance [7]: 80 mL/min/kg; Vd [8]: 11 L/kg; half-life [9]: 4.3 h; Cmax/dose [10]: 18 nM/mg/kg; AUC/dose [11]: 93 nM·h/mg/kg
COCCCn1cc(CN(C(=O)[C@H]2CNC[C@@H](C(=O)NCCC(C)C)C2)C2CC2)c2ccccc21	3 nM	40 nM	194 µL/min/mg	141 µL/min/mg	29%	–
CCOC[C@@H](CC(C)C)NC(=O)[C@@H]1CNC[C@H](C(=O)N(c2cc(OCC)c(CC)cn2)C2CC2)[C@@H]1O.O=C(O)/C=C/C(=O)O	–	–	–	–	60%	clearance [7]: 12.3 mL/min/kg; Vd [8]: 2.6 L/kg; half-life [9]: 5.9 h; Cmax/dose [10]: 252 nM/mg/kg; AUC/dose [11]: 1630 nM·h/mg/kg
CCOC[C@@H](CC(C)C)NC(=O)[C@@H]1CNC[C@H](C(=O)N(c2ccc(C(C)C)cc2)C2CC2)C1	4 nM	5340 nM	–	–	–	–
CCOC[C@@H](CC(C)C)NC(=O)[C@@H]1CNC[C@H](C(=O)N(c2cc(OC)c(C(C)C)cn2)C2CC2)[C@@H]1O [listing 2 of 2 here]	–	–	–	–	61%	clearance [7]: 40 mL/min/kg; Vd [8]: 6.1 L/kg; half-life [9]: 7.7 h; Cmax/dose [10]: 74 nM/mg/kg; AUC/dose [11]: 511 nM·h/mg/kg; logD [6]: 0.93
CCOC[C@@H](CC(C)C)NC(=O)[C@@H]1CNC[C@H](C(=O)N(c2cc(OC)c(C(C)C)cn2)C2CC2)C1 [listing 1 of 2 here]	–	–	–	–	–	logD [6]: 2.2
CCOC[C@@H](CC(C)C)NC(=O)[C@@H]1CNC[C@H](C(=O)N(c2ccc(C(C)C)cn2)C2CC2)C1 [listing 1 of 2 here]	–	–	–	–	–	logD [6]: 4.9
CCOC[C@@H](CC(C)C)NC(=O)[C@@H]1CNC[C@H](C(=O)N(c2cc(OCC)c(CC)cn2)C2CC2)[C@@H]1O [listing 2 of 2 here]	–	–	–	–	–	logD [6]: 0.93
CCOC[C@@H](CC(C)C)NC(=O)[C@@H]1CNC[C@H](C(=O)N(c2ccc(C(C)C)cn2)C2CC2)C1 [listing 2 of 2 here]	–	1.1 nM	< 3.4 µL/min/mg	13 µL/min/mg	–	IC50 [14]: 7000 nM
CCOC[C@@H](CC(C)C)NC(=O)[C@@H]1CNC[C@H](C(=O)N(c2cc(OCC)c(CC)cn2)C2CC2)C1 [listing 2 of 2 here]	0.2 nM	–	46 µL/min/mg	62 µL/min/mg	–	IC50 [14]: > 30000 nM
COCCCn1cc(CN(C(=O)[C@H]2CNC[C@@H](NC(=O)CC(C)C)C2)C2CC2)c2ccccc21 (racemic)	300 nM	–	–	–	–	–
CCOC[C@@H](CC(C)C)NC(=O)[C@@H]1CNC[C@H](C(=O)N(c2ccc(C(C)C)cn2)C2CC2)[C@@H]1O [listing 2 of 2 here]	0.2 nM	0.6 nM	< 3.4 µL/min/mg	52 µL/min/mg	–	IC50 [14]: > 30000 nM
CCOC[C@@H](CC(C)C)NC(=O)[C@@H]1CNC[C@H](C(=O)N(c2ccc(C(C)C)cn2)C2CC2)C1.O=C(O)/C=C/C(=O)O	–	–	–	–	45%	clearance [7]: 60 mL/min/kg; Vd [8]: 7.2 L/kg; half-life [9]: 6.5 h; Cmax/dose [10]: 63 nM/mg/kg; AUC/dose [11]: 296 nM·h/mg/kg
Cc1ccc(S(=O)(=O)N[C@@H]2CNC[C@H](C(=O)NC(c3ccccc3)c3ccccc3)C2)cc1 (racemic)	1200 nM	15200 nM	–	–	–	–
CCOC[C@@H](CC(C)C)NC(=O)[C@@H]1CNC[C@H](C(=O)N(c2ccc(C(C)C)c(OCCCOC)n2)C2CC2)C1	0.8 nM	6 nM	289 µL/min/mg	252 µL/min/mg	–	IC50 [14]: 3300 nM
CCOC[C@@H](CC(C)C)NC(=O)[C@@H]1CNC[C@H](C(=O)N(c2cc3c(cc2F)OC(C)(C)C(=O)N3CCCOC)C2CC2)C1.Cl	–	–	61 µL/min/mg	198 µL/min/mg	20%	clearance [7]: 122 mL/min/kg; Vd [8]: 12 L/kg; half-life [9]: 1.9 h; Cmax/dose [10]: 12 nM/mg/kg; AUC/dose [11]: 49 nM·h/mg/kg
COCCCn1cc(CN(C(=O)[C@H]2CNC[C@@H](C(=O)NCC(C)C)C2)C2CC2)c2ccccc21 (racemic)	15 nM	115 nM	–	–	–	–
CCOC[C@@H](CC(C)C)NC(=O)[C@@H]1CNC[C@H](C(=O)N(c2cc(OC)c(C(C)C)cn2)C2CC2)C1 [listing 2 of 2 here]	0.2 nM	0.4 nM	15 µL/min/mg	101 µL/min/mg	–	IC50 [14]: > 30000 nM
CCOC[C@@H](CC(C)C)NC(=O)[C@@H]1CNC[C@H](C(=O)N(c2cc(OCC)c(CC)cn2)C2CC2)C1.O=C(O)C(O)C(O)C(=O)O	–	–	–	–	44%	clearance [7]: 23.3 mL/min/kg; Vd [8]: 4.6 L/kg; half-life [9]: 7.4 h; Cmax/dose [10]: 155 nM/mg/kg; AUC/dose [11]: 690 nM·h/mg/kg
CC(C)(C)OC(=O)N[C@@H]1CNC[C@H](C(=O)N(Cc2cccc(Cl)c2Cl)C2CC2)C1 (racemic)	200 nM	–	–	–	–	–
